Results reported in patent publication US20180153990A1, “PCA1 PROTEIN AND METHODS OF TREATING PNEUMOCYSTIS PNEUMONIA INFECTION” (priority 2016, published 2018).

What was measured:
Pneumocystis = assay: Pcp-IRIS model: physiologic assessment (body weight, lung compliance, lung resistance); assay type: in vivo, SCID mice; details: treatment started when mice showed clinical signs of Pcp-IRIS
Excerpt: Severe combined immune deficient (SCID) mice on a C.B-17 background are maintained in a specific pathogen-free colony at University of Rochester Medical Center. For these studies, 6-8 week old female mice were infected with Pneumocystis by intratracheal inoculation with 1×10^5 Pneumocystis cysts and then also cohoused with other Pneumocystis-infected SCID mice to ensure infection. The mice were fed acidified water and sterile food. Immune reconstitution (IR) was initiated three weeks after infection by giving mice an intraperitoneal (i.p.) injection of 5×10^7 splenocytes from wild-type C.B-17 mice. All animals involved were treated ethically according to the guidelines from the Association for Assessment and Accreditation of Laboratory Care International (AAALAC International), and the protocols used were approved by the University Committee on Animal Resources.
Lung resistance and compliance were measured on living ventilated mice using a Harvard rodent ventilator (Harvard Apparatus, Southnatic, Mass.) and a whole body plethysmograph (BUXCO Electronics Inc., Wilmington, N.C.) as previously described (Wang et al., “Immune Modulation With Sulfasalazine Attenuates Immunopathogenesis but Enhances Macrophage-Mediated Fungal Clearance During Pneumocystis Pneumonia,” PLoS Pathog. 6:e1001058 (2010), which is hereby incorporated by reference in its entirety). […]

alveolar macrophages = assay: Effect of antibody administration during Pcp on alveolar macrophage phenotype (iNOS M1 / YM-1 M2 staining); assay type: in vivo, SCID mice
Procedure: For this experiment the Pneumocystis-infected mice were treated as above except that they received only 2 doses of specific antibody, nonspecific antibody or sulfasalazine on days 1 and 3 and then sacrificed later in the day on day 3. BALF aliquots containing 5×10^4 cells in HBSS were cytospun onto glass slides, fixed with 3% paraformaldehyde in PBS for 15 minutes at room temperature; rinsed 3× in PBS; and permeabilized with 0.02% Triton X-100 in PBS for 15 minutes at room temperature. The slides were then rinsed 3× in PBS, blocked with species specific 5% normal serum (normal goat serum, MP Biomedical; normal donkey serum, EMD Millipore) in 0.05% Tween-20 in PBS (PBS-T) for 1 hr at room temperature and rinsed 3× in PBS-T. Alveolar macrophages were identified by staining with fluorescein labeled primary antibody to CD11c. Staining with antibody to iNOS was used to identify M1 macrophages while staining with antibody to YM-1 was considered a marker for M2 macrophages (Abcam and Stemcell).
To test the effect of immune modulation, by administration of sulfasalazine or passive immunization, on macrophage phenotype during response to Pneumocystis, these agents or control nonspecific antibody were administered and alveolar macrophages were harvested after 3 days.

Structure (SMILES): O=C(O)c1cc(/N=N/c2ccc(S(=O)(=O)Nc3ccccn3)cc2)ccc1O [SSZ, sulfasalazine]
- severity of Pcp (recovery of body weight, pulmonary function) (Pneumocystis): reduced severity of Pcp
- M1 phenotype alveolar macrophages (alveolar macrophages; Treatment Day 3): 200 per 300 macrophages counted
- M2 phenotype alveolar macrophages (alveolar macrophages; Treatment Day 3): 100 per 300 macrophages counted
- proportion of M2 type macrophages in the alveolar space (alveolar macrophages; after 3 days): increase
